ChEMBL document CHEMBL4831500, “Discovery of first-in-class imidazothiazole-based potent and selective ErbB4 (HER4) kinase inhibitors” (Eur J Med Chem, 2021)

Columns and labels:
[1] = tested on: Panel NCI-60 (60 carcinoma cell lines); assay: Growth inhibition of human panel NCI-60 (60 carcinoma cells) assessed as growth percent at 10 uM measured after 48 hrs by SRB assay relative to control; format: functional; conditions: read-out: Activity
OVCAR-4 = assay: Antiproliferative activity against human OVCAR-4 cells assessed as cell growth inhibition measured after 48 hrs by SRB assay; format: functional, cell-based; conditions: OVCAR-4, 48 h
NCI-H322M = assay: Antiproliferative activity against human NCI-H322M cells assessed as cell growth inhibition measured after 48 hrs by SRB assay; format: functional, cell-based
DU-145 = assay: Antiproliferative activity against human DU-145 cells assessed as cell growth inhibition measured after 48 hrs by SRB assay; format: functional, cell-based; conditions: DU-145, 48 h
MOLT-4 = assay: Antiproliferative activity against human MOLT-4 cells assessed as cell growth inhibition measured after 48 hrs by SRB assay; format: functional, cell-based; conditions: MOLT-4, 48 h
HL-60(TB) = assay: Antiproliferative activity against human HL-60(TB) cells assessed as cell growth inhibition measured after 48 hrs by SRB assay; format: functional, cell-based; conditions: HL-60, 48 h
U-251 = assay: Antiproliferative activity against human U-251 cells assessed as cell growth inhibition measured after 48 hrs by SRB assay; format: functional, cell-based; conditions: U-251, 48 h
SK-MEL-5 = assay: Antiproliferative activity against human SK-MEL-5 cells assessed as cell growth inhibition measured after 48 hrs by SRB assay; format: functional, cell-based; conditions: SK-MEL-5, 48 h
NCI-H522 = assay: Antiproliferative activity against human NCI-H522 cells assessed as cell growth inhibition measured after 48 hrs by SRB assay; format: functional, cell-based; conditions: NCI-H522, 48 h
SNB-75 = assay: Antiproliferative activity against human SNB-75 cells assessed as cell growth inhibition measured after 48 hrs by SRB assay; format: functional, cell-based; conditions: SNB-75, 48 h
MDA-MB-468 = assay: Antiproliferative activity against human MDA-MB-468 cells assessed as cell growth inhibition measured after 48 hrs by SRB assay; format: functional, cell-based; conditions: MDA-MB-468, 48 h
UO-31 = assay: Antiproliferative activity against human UO-31 cells assessed as cell growth inhibition measured after 48 hrs by SRB assay; format: functional, cell-based; conditions: UO-31, 48 h
HCC 2998 = assay: Antiproliferative activity against human HCC 2998 cells assessed as cell growth inhibition measured after 48 hrs by SRB assay; format: functional, cell-based; conditions: HCC 2998, 48 h

CS(=O)(=O)c1cccc(-c2c(-c3cccc(OCCc4ccc(F)cc4)c3)nc3sccn23)c1
growth at 10 µM [1]: 82.9%

Fc1ccc(CCOc2cccc(-c3nc4sccn4c3-c3ccncn3)c2)cc1
growth at 10 µM [1]: 96%

c1ccc(CCOc2cccc(-c3nc4sccn4c3-c3ccccc3)c2)cc1
growth at 10 µM [1]: 98.9%

CC(C)N(CCOc1cccc(-c2nc3sccn3c2-c2ccnc(S(C)(=O)=O)n2)c1)C(C)C
growth at 10 µM [1]: 81.8%

CS(=O)(=O)c1nccc(-c2c(-c3ccc(OCc4ccccc4)cc3)nc3sccn23)n1
growth at 10 µM [1]: 95.1%

O=C(COc1cccc(-c2nc3sccn3c2-c2ccncn2)c1)c1ccccc1
growth at 10 µM [1]: 97%

CS(=O)(=O)c1cccc(-c2c(-c3cccc(OCc4ccc(F)cc4)c3)nc3sccn23)c1
growth at 10 µM [1]: 74.7%

Fc1ccc(CCOc2cccc(-c3nc4sccn4c3-c3ccccc3)c2)cc1
growth at 10 µM [1]: 87.5%

CS(=O)(=O)c1nccc(-c2c(-c3cccc(O)c3)nc3sccn23)n1
growth at 10 µM [1]: 90%

CS(=O)(=O)c1nccc(-c2c(-c3cccc(OCCN4CCOCC4)c3)nc3sccn23)n1
growth at 10 µM [1]: 83.5%

CS(=O)(=O)c1cccc(-c2c(-c3cccc(OCC(=O)c4ccccc4)c3)nc3sccn23)c1
growth at 10 µM [1]: 91%

CS(=O)(=O)c1nccc(-c2c(-c3ccc(OCCN4CCCC4)cc3)nc3sccn23)n1
growth at 10 µM [1]: 101%

COc1ccc(-c2nc3sccn3c2-c2ccnc(S(C)(=O)=O)n2)cc1
growth at 10 µM [1]: 73%

Oc1cccc(-c2nc3sccn3c2-c2ccccc2)c1
growth at 10 µM [1]: 94%

CS(=O)(=O)c1cccc(-c2c(-c3cccc(OCc4ccccc4)c3)nc3sccn23)c1
growth at 10 µM [1]: 87.6%

CN(C)CCOc1cccc(-c2nc3sccn3c2-c2ccnc(S(C)(=O)=O)n2)c1
growth at 10 µM [1]: 93.7%

Fc1ccc(COc2cccc(-c3nc4sccn4c3-c3ccccc3)c2)cc1
growth at 10 µM [1]: 97.8%

CS(=O)(=O)c1nccc(-c2c(-c3cccc(OCc4ccccc4)c3)nc3occn23)n1
growth at 10 µM [1]: 101%

Oc1cccc(-c2nc3sccn3c2-c2ccncn2)c1
growth at 10 µM [1]: 85.5%

CS(=O)(=O)c1nccc(-c2c(-c3cccc(OS(N)(=O)=O)c3)nc3sccn23)n1
growth at 10 µM [1]: 97.9%

CS(=O)(=O)c1nccc(-c2c(-c3cccc(OCC(=O)c4ccccc4)c3)nc3sccn23)n1
growth at 10 µM [1]: 94%

c1ccc(CCOc2cccc(-c3nc4sccn4c3-c3ccncn3)c2)cc1
growth at 10 µM [1]: 96.4%

CN(C)CCOc1ccc(-c2nc3sccn3c2-c2ccnc(S(C)(=O)=O)n2)cc1
growth at 10 µM [1]: 102%

CS(=O)(=O)c1cccc(-c2c(-c3cccc(OCCc4ccccc4)c3)nc3sccn23)c1
growth at 10 µM [1]: 95.3%

CS(=O)(=O)c1nccc(-c2c(-c3cccc(OCCc4ccc(F)cc4)c3)nc3sccn23)n1
growth at 10 µM [1]: 91.6%

CS(=O)(=O)c1nccc(-c2c(-c3cccc(OCc4ccc(F)cc4)c3)nc3occn23)n1
growth at 10 µM [1]: 89.7%

CS(=O)(=O)c1nccc(-c2c(-c3ccc(O)cc3)nc3sccn23)n1
growth at 10 µM [1]: 99.7%

CS(=O)(=O)c1nccc(-c2c(-c3ccc(OCCc4ccccc4)cc3)nc3sccn23)n1
growth at 10 µM [1]: 91.2%

COc1cccc(-c2nc3sccn3c2-c2ccccc2)c1
growth at 10 µM [1]: 96.6%

C=CC(=O)N1CCC[C@@H](n2nc(-c3ccc(Oc4ccccc4)cc3)c3c(N)ncnc32)C1 [IBRUTINIB]
IC50 (OVCAR-4): 7.94 µM | IC50 (NCI-H322M): 0.1 µM | IC50 (DU-145): 2 µM | IC50 (MOLT-4): 3.98 µM | IC50 (HL-60(TB)): 19.9 µM | IC50 (U-251): 6.31 µM | IC50 (SK-MEL-5): 6.31 µM | IC50 (NCI-H522): 0.06 µM | IC50 (SNB-75): 3.16 µM | IC50 (MDA-MB-468): 0.03 µM | IC50 (UO-31): 1.26 µM | IC50 (HCC 2998): 15.8 µM

COc1cccc(-c2nc3occn3c2-c2ccnc(S(C)(=O)=O)n2)c1
growth at 10 µM [1]: 96%

COc1cccc(-c2nc3sccn3c2-c2cccc(S(C)(=O)=O)c2)c1
growth at 10 µM [1]: 99.8%

CS(=O)(=O)c1nccc(-c2c(-c3ccc(OCCN4CCOCC4)cc3)nc3sccn23)n1
growth at 10 µM [1]: 101%

CS(=O)(=O)c1nccc(-c2c(-c3cccc(OCCN4CCCC4)c3)nc3sccn23)n1
growth at 10 µM [1]: 94.2%

CS(=O)(=O)c1nccc(-c2c(-c3cccc(OCCc4ccccc4)c3)nc3sccn23)n1
growth at 10 µM [1]: 96%

CC(C)N(CCOc1ccc(-c2nc3sccn3c2-c2ccnc(S(C)(=O)=O)n2)cc1)C(C)C
growth at 10 µM [1]: 81.1%

CNC(=O)c1cc(Oc2ccc(NC(=O)Nc3ccc(Cl)c(C(F)(F)F)c3)cc2)ccn1 [SORAFENIB]
IC50 (SK-MEL-5): 2.51 µM | IC50 (NCI-H522): 5.01 µM

Fc1ccc(COc2cccc(-c3nc4sccn4c3-c3ccncn3)c2)cc1
growth at 10 µM [1]: 76.3%

CS(=O)(=O)c1cccc(-c2c(-c3cccc(O)c3)nc3sccn23)c1
growth at 10 µM [1]: 99.2%

CS(=O)(=O)c1nccc(-c2c(-c3cccc(O)c3)nc3occn23)n1
growth at 10 µM [1]: 102%

c1ccc(COc2cccc(-c3nc4sccn4c3-c3ccccc3)c2)cc1
growth at 10 µM [1]: 99.3%

O=C(COc1cccc(-c2nc3sccn3c2-c2ccccc2)c1)c1ccccc1
growth at 10 µM [1]: 84.6%
